Data from PubChem BioAssay AID2060606 (Molecular Pharmacology Branch, DTP, NCI, 2025).

Test system: 922993-354-T-J3-PDC complex spheroids, viability, % test/control
Assay: Anticancer human tumor 922993-354-T-J3-PDC patient-derived endometrial carcinoma cell line growth inhibition [CLK]
Details: for IC50: curve of first compound; for viability, T/C: stronger effect = lower value
Procedure, shortened: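 Multi-cell-type spheroids combined patient-derived tumor cells with HUVEC endothelial cells and human mesenchymal stem cells. Paired agents were dosed in half-log steps down from about clinical Cmax, or from 10 microM where Cmax was unknown.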

[1] = second compound 0.0316 µM, first compound 0.0316 µM
[2] = second compound 0.0316 µM, first compound 0.1 µM
[3] = second compound 0.0316 µM, first compound 0.316 µM
[4] = second compound 0.0316 µM, first compound 1 µM
[5] = second compound 0.0316 µM, first compound 3.16 µM
[6] = second compound 0.0316 µM, first compound 10 µM
[7] = second compound 0.1 µM, first compound 0.0316 µM
[8] = second compound 0.1 µM, first compound 0.1 µM
[9] = second compound 0.1 µM, first compound 0.316 µM
[10] = second compound 0.1 µM, first compound 1 µM
[11] = second compound 0.1 µM, first compound 3.16 µM
[12] = second compound 0.1 µM, first compound 10 µM
[13] = second compound 0.316 µM, first compound 0.0316 µM
[14] = second compound 0.316 µM, first compound 0.1 µM
[15] = second compound 0.316 µM, first compound 0.316 µM
[16] = second compound 0.316 µM, first compound 1 µM
[17] = second compound 0.316 µM, first compound 3.16 µM
[18] = second compound 0.316 µM, first compound 10 µM
[19] = second compound 1 µM, first compound 0.0316 µM
[20] = second compound 1 µM, first compound 0.1 µM
[21] = second compound 1 µM, first compound 0.316 µM
[22] = second compound 1 µM, first compound 1 µM
[23] = second compound 1 µM, first compound 3.16 µM
[24] = second compound 1 µM, first compound 10 µM
[25] = second compound 3.16 µM, first compound 0.0316 µM
[26] = second compound 3.16 µM, first compound 0.1 µM
[27] = second compound 3.16 µM, first compound 0.316 µM
[28] = second compound 3.16 µM, first compound 1 µM
[29] = second compound 3.16 µM, first compound 3.16 µM
[30] = second compound 3.16 µM, first compound 10 µM
[31] = second compound 10 µM, first compound 0.0316 µM
[32] = second compound 10 µM, first compound 0.1 µM
[33] = second compound 10 µM, first compound 0.316 µM
[34] = second compound 10 µM, first compound 1 µM
[35] = second compound 10 µM, first compound 3.16 µM
[36] = second compound 10 µM, first compound 10 µM
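Also: spheroids exposed to the agents for 7 days before readout.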

`CC(=O)O[C@H]1C(=O)[C@@]2(C)[C@H]([C@H](OC(=O)c3ccccc3)[C@]3(O)C[C@H](OC(=O)[C@H](O)[C@@H](NC(=O)c4ccccc4)c4ccccc4)C(C)=C1C3(C)C)[C@]1(OC(C)=O)CO[C@@H]1C[C@@H]2O` + CNC(=O)c1ccc(Nc2nc(OC3CCCC3)c3c(-c4ccc5nc(C)oc5c4)c[nH]c3n2)c(OC)c1 gave an IC50 (second compound 0.0316 µM) greater than 10000 nM, an IC50 (second compound 0.1 µM) greater than 10000 nM and an IC50 (second compound 0.316 µM) greater than 10000 nM. The IC50 (second compound 1 µM) was less than 31.6 nM, the IC50 (second compound 3.16 µM) was less than 31.6 nM and the IC50 (second compound 10 µM) was less than 31.6 nM. The viability, T/C [1] was 113%, the viability, T/C [2] was 104% and the viability, T/C [3] was 99.3%. For the same molecule, the viability, T/C [4] was 99.2%, the viability, T/C [5] was 69.3% and the viability, T/C [6] was 51%. The viability, T/C [7] was 101%, the viability, T/C [8] was 92.1% and the viability, T/C [9] was 104%. The viability, T/C [10] was 77.1%, the viability, T/C [11] was 61.2% and the viability, T/C [12] was 51.8%. For the same molecule, the viability, T/C [13] was 60.2%, the viability, T/C [14] was 59% and the viability, T/C [15] was 66.8%. It also gave a viability, T/C [16] of 73.2%, a viability, T/C [17] of 79.7% and a viability, T/C [18] of 68.1%. The viability, T/C [19] was 42.6%, the viability, T/C [20] was 46% and the viability, T/C [21] was 44.7%. It also gave a viability, T/C [22] of 45.9%, a viability, T/C [23] of 51.1% and a viability, T/C [24] of 47.1%. It also gave a viability, T/C [25] of 34.6%, a viability, T/C [26] of 41.4% and a viability, T/C [27] of 35.8%. For the same molecule, the viability, T/C [28] was 44.3%, the viability, T/C [29] was 42.6% and the viability, T/C [30] was 39.9%. It also gave a viability, T/C [31] of 35.4%, a viability, T/C [32] of 39.2% and a viability, T/C [33] of 40.2%. It also gave a viability, T/C [34] of 37.4%, a viability, T/C [35] of 44.9% and a viability, T/C [36] of 36.1%.

Molecule `CCc1c2c(nc3ccc(O)cc13)-c1cc3c(c(=O)n1C2)COC(=O)[C@]3(O)CC` + CNC(=O)c1ccc(Nc2nc(OC3CCCC3)c3c(-c4ccc5nc(C)oc5c4)c[nH]c3n2)c(OC)c1 has an IC50 (second compound 0.0316 µM) of 19.5 nM, an IC50 (second compound 0.1 µM) of 22.9 nM and an IC50 (second compound 0.316 µM) of 16.6 nM. The IC50 (second compound 1 µM) was less than 3.16 nM, the IC50 (second compound 3.16 µM) was less than 3.16 nM and the IC50 (second compound 10 µM) was less than 3.16 nM. It also gave a viability, T/C (second compound 0.0316 µM, first compound 0.00316 µM) of 101%, a viability, T/C (second compound 0.0316 µM, first compound 0.01 µM) of 85.3% and a viability, T/C [1] of 24.8%. It also gave a viability, T/C [2] of 15.1%, a viability, T/C [3] of 22.3% and a viability, T/C [4] of 25.9%. The viability, T/C (second compound 0.1 µM, first compound 0.00316 µM) was 99.2%, the viability, T/C (second compound 0.1 µM, first compound 0.01 µM) was 79.2% and the viability, T/C [7] was 40.6%. The viability, T/C [8] was 15.1%, the viability, T/C [9] was 20.7% and the viability, T/C [10] was 29.9%. For the same molecule, the viability, T/C (second compound 0.316 µM, first compound 0.00316 µM) was 64.2%, the viability, T/C (second compound 0.316 µM, first compound 0.01 µM) was 63.4% and the viability, T/C [13] was 32.6%. The viability, T/C [14] was 16%, the viability, T/C [15] was 21.4% and the viability, T/C [16] was 31.4%. The viability, T/C (second compound 1 µM, first compound 0.00316 µM) was 32.1%, the viability, T/C (second compound 1 µM, first compound 0.01 µM) was 39.8% and the viability, T/C [19] was 13.2%. The viability, T/C [20] was 13.6%, the viability, T/C [21] was 20.3% and the viability, T/C [22] was 18.5%. It also gave a viability, T/C (second compound 3.16 µM, first compound 0.00316 µM) of 34.4%, a viability, T/C (second compound 3.16 µM, first compound 0.01 µM) of 28.1% and a viability, T/C [25] of 14.6%. The viability, T/C [26] was 13.8%, the viability, T/C [27] was 17.4% and the viability, T/C [28] was 17.7%. For the same molecule, the viability, T/C (second compound 10 µM, first compound 0.00316 µM) was 30%, the viability, T/C (second compound 10 µM, first compound 0.01 µM) was 21.8% and the viability, T/C [31] was 12.6%. For the same molecule, the viability, T/C [32] was 14.6%, the viability, T/C [33] was 16.5% and the viability, T/C [34] was 17.6%.

For `O=c1[nH]cc(F)c(=O)[nH]1` + CNC(=O)c1ccc(Nc2nc(OC3CCCC3)c3c(-c4ccc5nc(C)oc5c4)c[nH]c3n2)c(OC)c1, the IC50 (second compound 0.0316 µM) was 7510 nM, the IC50 (second compound 0.1 µM) was 4990 nM and the IC50 (second compound 0.316 µM) was 4060 nM. For the same molecule, the IC50 (second compound 1 µM) was less than 31.6 nM, the IC50 (second compound 3.16 µM) was less than 31.6 nM and the IC50 (second compound 10 µM) was less than 31.6 nM. It also gave a viability, T/C [1] of 110%, a viability, T/C [2] of 104% and a viability, T/C [3] of 103%. For the same molecule, the viability, T/C [4] was 103%, the viability, T/C [5] was 75.5% and the viability, T/C [6] was 41.6%. For the same molecule, the viability, T/C [7] was 91.3%, the viability, T/C [8] was 119% and the viability, T/C [9] was 106%. For the same molecule, the viability, T/C [10] was 98.2%, the viability, T/C [11] was 64.3% and the viability, T/C [12] was 28.3%. For the same molecule, the viability, T/C [13] was 68%, the viability, T/C [14] was 64% and the viability, T/C [15] was 57.7%. It also gave a viability, T/C [16] of 60.7%, a viability, T/C [17] of 56.5% and a viability, T/C [18] of 29.9%. For the same molecule, the viability, T/C [19] was 34%, the viability, T/C [20] was 40.4% and the viability, T/C [21] was 33.7%. The viability, T/C [22] was 31.7%, the viability, T/C [23] was 32.9% and the viability, T/C [24] was 23.9%. It also gave a viability, T/C [25] of 33.4%, a viability, T/C [26] of 37.3% and a viability, T/C [27] of 31.5%. For the same molecule, the viability, T/C [28] was 29.5%, the viability, T/C [29] was 28.5% and the viability, T/C [30] was 20.8%. For the same molecule, the viability, T/C [31] was 35.1%, the viability, T/C [32] was 30.4% and the viability, T/C [33] was 29%. For the same molecule, the viability, T/C [34] was 29%, the viability, T/C [35] was 31.2% and the viability, T/C [36] was 19.7%.
